Earlier results as cited in patent publication US7923465B2, “Cannabinoid receptor ligands, pharmaceutical compositions containing them, and process for their preparation” (priority 2005, dated 2011).
Where two headings read alike, the source gives them in different places.

Tests used:
voluntary ethanol intake [1] = settings: rats; cited from earlier work
voluntary ethanol intake [2] = settings: mice; cited from earlier work

Compound: Cc1c(C(=O)NN2CCCCC2)nn(-c2ccc(Cl)cc2Cl)c1-c1ccc(Cl)cc1 [SR-141716A, 5-(4-chlorophenyl)-1-(2,4-dichlorophenyl)-4-methyl-N-(1-piperidyl)pyrazole-3-carboxamide]
- voluntary ethanol intake (voluntary ethanol intake [1]): block voluntary ethanol intake
- voluntary ethanol intake (voluntary ethanol intake [2]): block voluntary ethanol intake
